This note sets out measurements from patent publication US12077555B2, “STAT degraders and uses thereof” (Kymera Therapeutics, Inc., priority 2019, dated 2024).

Chain of STAT3 (P40763 whole entry): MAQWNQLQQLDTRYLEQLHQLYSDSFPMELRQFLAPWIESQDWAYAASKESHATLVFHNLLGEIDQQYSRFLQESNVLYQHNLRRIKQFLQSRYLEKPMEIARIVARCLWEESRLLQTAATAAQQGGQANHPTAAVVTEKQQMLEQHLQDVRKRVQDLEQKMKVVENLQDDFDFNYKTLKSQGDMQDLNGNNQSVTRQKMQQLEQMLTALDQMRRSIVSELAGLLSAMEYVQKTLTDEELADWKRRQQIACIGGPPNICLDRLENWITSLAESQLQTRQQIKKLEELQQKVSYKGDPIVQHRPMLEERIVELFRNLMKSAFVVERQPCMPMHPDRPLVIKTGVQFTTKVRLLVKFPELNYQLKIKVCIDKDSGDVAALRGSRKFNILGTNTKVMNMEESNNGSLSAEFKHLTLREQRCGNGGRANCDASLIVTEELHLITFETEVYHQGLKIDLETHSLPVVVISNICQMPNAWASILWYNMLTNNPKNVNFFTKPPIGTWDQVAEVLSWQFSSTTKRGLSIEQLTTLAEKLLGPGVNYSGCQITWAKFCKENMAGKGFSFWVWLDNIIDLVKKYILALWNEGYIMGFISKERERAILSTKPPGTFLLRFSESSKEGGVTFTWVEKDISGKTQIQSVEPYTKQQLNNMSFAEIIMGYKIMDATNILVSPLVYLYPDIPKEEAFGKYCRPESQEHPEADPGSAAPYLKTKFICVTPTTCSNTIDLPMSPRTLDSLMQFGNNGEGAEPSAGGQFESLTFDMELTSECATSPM

In the experiment the target is STAT3 (Homo sapiens, UniProt P40763). Kind of experiment: STAT3 HiBiT degradation assay in transfected A549 cells. In kind it is cell-based. The arrangement: expressed in transfected cells; host or cells: A549. Conditions: A549, 24 h; read-out: STAT3 HiBiT A549 degradation 24 h: Average external-Abs DC50. The method, boiled down:
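Degradation read as HiBiT-tagged STAT3 luminescence (Nano-Glo lytic reagent, 10 min, room temperature) following 24 h compound treatment of transfected A549 cells at 3-fold, 10 points. Percent remaining signal computed against controls and fitted with a four-parameter logistic; DC50 reported as letter bins (A <0.01 to D >1.0 µM).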
(With HiBiT, luminescence reflects the tagged protein that the partner subunit can reach.)
As a reminder, the DC50 is the concentration at which degradation of the target reaches its halfway point. For the molecule `Cc1ncsc1-c1ccc([C@H](C)NC(=O)[C@@H]2C[C@@H](O)CN2C(=O)[C@@H](NC(=O)CCCCc2cccc(OC[C@H](CCC(N)=O)NC(=O)[C@@H]3Cc4cccc5c4N3C(=O)[C@@H](NC(=O)c3cc4cc(C(=O)P(=O)(O)O)ccc4[nH]3)CC5)c2)C(C)(C)C)cc1` [Compound I-211, diammonium 2-[[(2S,11S)-2-[[(2S)-4-carbamoyl-1-[3-(4-[[(2S)-1-[(2S,4R)-4-hydroxy-2-[[(1S)-1-[4-(4-methyl-1,3-thiazol-5-yl)phenyl]ethyl]carbamoyl]pyrrolidin-1-yl]-3,3-dimethyl-1-oxobutan-2-yl]carbamoyl]butyl)phenoxy]butan-2-yl]carbamoyl]-12-oxo-1-azatricyclo[6.4.1.0^[4,13]]trideca-4(13),5,7-trien-11-yl]carbamoyl]-1H-indole-5-carbonylphosphonate], the half-maximal degradation concentration (DC50) lay in the range of 10 to 100 nM. As for `CC(=O)N1CC[C@H]2CC[C@@H](C(=O)N[C@@H](CCC(=O)O)COc3cc(C)cc(CCCC(=O)N[C@H](C(=O)N4C[C@H](O)C[C@H]4C(=O)N[C@@H](C)c4ccc(-c5scnc5C)cc4)C(C)(C)C)c3F)N2C(=O)[C@@H](NC(=O)c2cc3cc(C(=O)P(=O)(O)O)ccc3[nH]2)C1` [Compound I-290], the figure is less than 10 nM; as for `Cc1ncsc1-c1ccc(CNC(=O)[C@@H]2C[C@@H](O)CN2C(=O)[C@@H](NC(=O)CCc2cccc3cc(CO[C@H](C)[C@H](CCC(N)=O)NC(=O)[C@@H]4Cc5cccc6c5N4C(=O)[C@@H](NC(=O)c4cc5cc(C(=O)P(=O)(O)O)ccc5[nH]4)CC6)ccc23)C(C)(C)C)cc1` [Compound I-136, diammonium 2-[[(2S,11S)-2-[[(3S,4R)-1-carbamoyl-4-[[5-(2-[[(2S)-1-[(2S,4R)-4-hydroxy-2-([[4-(4-methyl-1,3-thiazol-5-yl)phenyl]methyl]carbamoyl)pyrrolidin-1-yl]-3,3-dimethyl-1-oxobutan-2-yl]carbamoyl]ethyl)naphthalen-2-yl]methoxy]pentan-3-yl]carbamoyl]-12-oxo-1-azatricyclo[6.4.1.0^[4,13]]trideca-4(13),5,7-trien-11-yl]carbamoyl]-1H-indole-5-carbonylphosphonate], greater than 1000 nM. To `Cn1c(=O)n(C2CCC(=O)NC2=O)c2ccc(CCCCCCC(=O)N3CC[C@H]4CC[C@@H](C(=O)N[C@H](CCC(N)=O)C(=O)NC(c5ccccc5)c5ccccc5)N4C(=O)[C@@H](NC(=O)c4cc5cc(C(=O)P(=O)(O)O)ccc5[nH]4)C3)cc21` (stereo partly drawn) [Compound I-181, 2-[[(5S,8S,10aR)-8-[[(1R)-3-carbamoyl-1-(diphenylmethylcarbamoyl)propyl]carbamoyl]-3-[7-[1-(2,6-dioxopiperidin-3-yl)-3-methyl-2-oxo-1,3-benzodiazol-5-yl]heptanoyl]-6-oxo-octahydropyrrolo[1,2-a][1,5]diazocin-5-yl]carbamoyl]-1H-indole-5-carbonylphosphonic acid] belongs greater than 1000 nM. To `Cc1ncsc1-c1ccc(CNC(=O)[C@@H]2C[C@@H](O)CN2C(=O)[C@@H](NC(=O)C2(CCCc3ccc(CO[C@H](C)[C@H](CCC(N)=O)NC(=O)[C@@H]4Cc5cccc6c5N4C(=O)[C@@H](NC(=O)c4cc5cc(C(=O)P(=O)(O)O)ccc5[nH]4)CC6)cc3)CC2)C(C)(C)C)cc1` [Compound I-223, diammonium 2-[[(2S,11S)-2-[[(3S,4R)-1-carbamoyl-4-([4-[3-(1-[[(2S)-1-[(2S,4R)-4-hydroxy-2-([[4-(4-methyl-1,3-thiazol-5-yl)phenyl]methyl]carbamoyl)pyrrolidin-1-yl]-3,3-dimethyl-1-oxobutan-2-yl]carbamoyl]cyclopropyl)propyl]phenyl]methoxy)pentan-3-yl]carbamoyl]-12-oxo-1-azatricyclo[6.4.1.0^[4,13]]trideca-4(13),5,7-trien-11-yl]carbamoyl]-1H-indole-5-carbonylphosphonate] belongs 100 to 1000 nM. As to `CC(=O)N1CC[C@H]2CC[C@@H](C(=O)N[C@@H](CCC(N)=O)[C@@H](C)OCc3ccc(CCCCC(=O)N[C@H](C(=O)N4C[C@H](O)C[C@H]4C(=O)NCc4ccc(-c5scnc5C)cc4)C(C)(C)C)cc3)N2C(=O)[C@@H](NC(=O)c2cc3cc(C(=O)P(=O)(O)O)ccc3[nH]2)C1` [Compound I-165], the 50% degradation concentration (DC50) fell in the range of 100 to 1000 nM. As for `Cc1ncsc1-c1ccc(CNC(=O)C2C[C@@H](O)CN2C(=O)[C@@H](NC(=O)CC2CC(c3ccc(CO[C@H](C)[C@H](CCC(N)=O)NC(=O)[C@@H]4Cc5cccc6c5N4C(=O)[C@@H](NC(=O)c4cc5cc(C(=O)P(=O)(O)O)ccc5[nH]4)CC6)cc3)C2)C(C)(C)C)cc1` (some centres unmarked) [Compound I-176], the figure is greater than 1000 nM. For the molecule `Cc1ncsc1-c1ccc([C@H](C)NC(=O)[C@@H]2C[C@@H](O)CN2C(=O)[C@@H](NC(=O)CCCc2cccc(NC(=O)[C@H](CCC(N)=O)NC(=O)[C@@H]3Cc4cccc5c4N3C(=O)[C@@H](NC(=O)c3cc4cc(C(=O)P(=O)(O)O)ccc4[nH]3)CC5)c2Cl)C(C)(C)C)cc1` [Compound I-247, diammonium 2-[[(2S,11S)-2-[[(1S)-3-carbamoyl-1-[[2-chloro-3-(3-[[(2S)-1-[(2S,4R)-4-hydroxy-2-[[(1S)-1-[4-(4-methyl-1,3-thiazol-5-yl)phenyl]ethyl]carbamoyl]pyrrolidin-1-yl]-3,3-dimethyl-1-oxobutan-2-yl]carbamoyl]propyl)phenyl]carbamoyl]propyl]carbamoyl]-12-oxo-1-azatricyclo[6.4.1.0^[4,13]]trideca-4(13),5,7-trien-11-yl]carbamoyl]-1H-indole-5-carbonylphosphonate], the DC50 lay in the range of 10 to 100 nM. As for `Cn1c(=O)n(C2CCC(=O)NC2=O)c2ccc(N3CCN(CCC(=O)N4CC[C@H]5CC[C@@H](C(=O)N[C@@H](CCC(N)=O)C(=O)NC(c6ccccc6)c6ccccc6)N5C(=O)[C@@H](NC(=O)c5cc6cc(C(=O)P(=O)(O)O)ccc6[nH]5)C4)CC3)cc21` (stereo partly drawn) [Compound I-175, 2-[[(5S,8S,10aR)-8-[[(1S)-3-carbamoyl-1-(diphenylmethylcarbamoyl)propyl]carbamoyl]-3-(3-[4-[1-(2,6-dioxopiperidin-3-yl)-3-methyl-2-oxo-1,3-benzodiazol-5-yl]piperazin-1-yl]propanoyl)-6-oxo-octahydropyrrolo[1,2-a][1,5]diazocin-5-yl]carbamoyl]-1H-indole-5-carbonylphosphonic acid], the figure is 100 to 1000 nM; as for `Cc1ncsc1-c1ccc([C@H](C)NC(=O)[C@@H]2C[C@@H](O)CN2C(=O)[C@@H](NC(=O)CCCCCc2cc(Cl)cc(OC[C@@H](NC(=O)[C@@H]3Cc4cccc5c4N3C(=O)[C@@H](NC(=O)c3cc4cc(C(=O)P(=O)(O)O)ccc4[nH]3)CC5)C(N)=O)c2)C(C)(C)C)cc1` [Compound I-204, 2-[[(2S,11S)-2-[[(2S)-4-carbamoyl-1-[3-chloro-5-(5-[[(2S)-1-[(2S,4R)-4-hydroxy-2-[[(1S)-1-[4-(4-methyl-1,3-thiazol-5-yl)phenyl]ethyl]carbamoyl]prrolidin-1-yl]-3,3-dimethyl-1-oxobutan-2-yl]carbamoyl]pentyl)phenoxy]butan-2-yl]carbamoyl]-12-oxo-1-azatricyclo[6.4.1.0^[4,13]]trideca-4(13),5,7-trien-11-yl]carbamoyl]-1H-indole-5-carbonylphosphonic acid], 10 to 100 nM. `Cc1ncsc1-c1ccc([C@H](C)NC(=O)[C@@H]2C[C@@H](O)CN2C(=O)[C@@H](NC(=O)Cc2cccc(OC[C@H](CCC(N)=O)NC(=O)[C@@H]3Cc4cccc5c4N3C(=O)[C@@H](NC(=O)c3cc4cc(C(=O)P(=O)(O)O)ccc4[nH]3)CC5)c2)C(C)(C)C)cc1` [Compound I-256, 2-[[(2S,11S)-2-[[(2S)-4-carbamoyl-1-[3-([[(2S)-1-[(2S,4R)-4-hydroxy-2-[[(1S)-1-[4-(4-methyl-1,3-thiazol-5-yl)phenyl]ethyl]carbamoyl]pyrrolidin-1-yl]-3,3-dimethyl-1-oxobutan-2-yl]carbamoyl]methyl)phenoxy]butan-2-yl]carbamoyl]-12-oxo-1-azatricyclo[6.4.1.0^[4,13]]trideca-4(13),5,7-trien-11-yl]carbamoyl]-1H-indole-5-carbonylphosphonic acid]: the DC50 is greater than 1000 nM. Regarding `Cn1c(=O)n(C2CCC(=O)NC2=O)c2ccc(C[C@H]3CC[C@H](CC(=O)N4CC[C@H]5CC[C@@H](C(=O)N[C@@H](CCC(N)=O)C(=O)NC(c6ccccc6)c6ccccc6)N5C(=O)[C@@H](NC(=O)c5cc6cc(C(=O)P(=O)(O)O)ccc6[nH]5)C4)CC3)cc21` (stereo partly drawn) [Compound I-166, 2-[[(5S,8S,10aR)-8-[[(1S)-3-carbamoyl-1-(diphenylmethylcarbamoyl)propyl]carbamoyl]-6-oxo-3-[2-[(1r, 4r)-4-[[1-(2,6-dioxopiperidin-3-yl)-3-methyl-2-oxo-1,3-benzodiazol-5-yl]methyl]cyclohexyl]acetyl]-octahydropyrrolo[1,2-a][1,5]diazocin-5-yl]carbamoyl]-1H-indole-5-carbonylphosphonic acid], the DC50 is 10 to 100 nM. Consider `Cc1ncsc1-c1ccc(CNC(=O)[C@@H]2C[C@@H](O)CN2C(=O)[C@@H](NC(=O)CCCCCCCCOC[C@H](CCC(N)=O)NC(=O)[C@@H]2Cc3cccc4c3N2C(=O)[C@@H](NC(=O)c2cc3cc(C(=O)P(=O)(O)O)ccc3[nH]2)CC4)C(C)(C)C)cc1` [Compound I-154], for which the DC50 was greater than 1000 nM. On to `Cn1c(=O)n(C2CCC(=O)NC2=O)c2ccc(CCCCCc3cc4c5c(c3)C[C@@H](C(=O)N[C@@H](CCC(N)=O)C(=O)NC(c3ccccc3)c3ccccc3)N5C(=O)[C@@H](NC(=O)c3cc5cc(C(=O)P(=O)(O)O)ccc5[nH]3)CC4)cc21` (stereo partly drawn) [Compound I-198, 2-[[(2S,11S)-2-[[(1S)-3-carbamoyl-1-(diphenylmethylcarbamoyl)propyl]carbamoyl]-6-[5-[1-(2,6-dioxopiperidin-3-yl)-3-methyl-2-oxo-1,3-benzodiazol-5-yl]pentyl]-12-oxo-1-azatricyclo[6.4.1.0^[4,13]]trideca-4(13),5,7-trien-11-yl]carbamoyl]-1H-indole-5-carbonylphosphonic acid], for which the DC50 is 100 to 1000 nM.
